Test results as given in publication PMC11396751, “Design, Synthesis, and Anticancer Activity of Novel Enmein-Type Diterpenoid Derivatives Targeting the PI3K/Akt/mTOR Signaling Pathway” (Molecules, 2024).

Assays:
Format in all cases: cell-based, human
[1] = tested on: A549 cells; test: Apoptosis rate, Annexin V-FITC/PI, flow cytometry; settings: 48 h
Protocol: To further confirm the capacity of 7h to induce apoptosis in cancer cells, A549 cells were treated with 7h, detected using Annexin V-FITC/PI staining, and the apoptosis rate was detected by flow cytometry.
A549 cells were inoculated into 6-well plates and attached via cell adhesion. Then, gradient concentrations (0, 2, 4, and 8 µM) of 7h was added and co-incubated for 48 h. The cells were gathered and prepared as cell suspensions according to the method described in Section 4.2.3. The cell suspension was treated with Annexin V-FITC/PI staining solution, and the data were gathered using a flow cytometer (FACS Calibur, BD, Milpitas, CA, USA) and analyzed using Flow Jo software. Three attempts were performed for each treatment to eliminate experimental bias.

[2] = tested on: A549 cells; test: Apoptosis morphology, AO/EB double staining; settings: A549, 2, 4 and 8 µM, 48 h
Protocol: To explore whether compound 7h could induce apoptosis in cancer cells, A549 cells were treated with different concentrations (0, 2, 4, and 8 µM) of 7h and then stained with AO/EB double staining. In the blank control group, normal cells were stained green with AO staining solution with intact nuclei.
A549 cells were inoculated into 24-well plates and attached via cell adhesion. Then, gradient concentrations (0, 2, 4, and 8 µM) of 7h were added and co-incubated for 48 h. The cells were cleaned with ice-cold PBS, stained with AO/EB, mixed, and then incubated in cells for 5 min in darkness at 25 °C. The apoptosis morphology of the cells in each group was observed and photographed using a laser confocal microscope (LSM710, Zeiss, Oberkochen, Germany).

[3] = tested on: PI3K/Akt/mTOR pathway; test: Western blot analysis in A549 cells; settings: A549, 2, 4 and 8 µM, 48 h
Protocol: The PI3K/Akt/mTOR pathway is a critical intracellular signaling pathway during cancer development that regulates cellular processes such as proliferation, differentiation, apoptosis, and autophagy. Inhibiting the aberrant activation of the PI3K/Akt/mTOR signaling pathway is envisaged as a promising anticancer strategy. Based on KEGG analysis and researching the literature, the PI3K/Akt/mTOR signaling pathway is predicted to be one of the major pathways for 7h to exert its anticancer effects. Therefore, a western blot assay was performed to determine the expression of the main proteins, PI3K, p-PI3K, Akt, p-Akt, mTOR, and p-mTOR, to examine whether the anticancer ability of 7h against A549 cells is related to its modulation of the PI3K/Akt/mTOR pathway.
Western blot was used to determine the effect of 7h against the related protein expression in A549 cells. A549 cells were inoculated in 6-well plates and treated with a grdient concentrations (0, 2, 4, and 8 µM) of 7h for 48 h. The cells were collected, lysed in RIPA buffer, and heated at 100 °C for 10 min. The samples were processed via 10% sodium dodecyl sulfate-polyacrylamide gel electrophoresis (10% SDS-PAGE) and then transferred to a poly vinylidene difluoride (PVDE) membrane. […]

[4] = A549, highest concentration (8 µM per Figure 4b)

## C=C1C(=O)C23C(=O)OC45CCC(C)(C)C6C(OC(=O)CCC(=O)N7CCC(c8noc9cc(F)ccc89)CC7)OCC64C2CCC1C3O5 (single isomer, unassigned; ent-6) [Compound 7h, ent-6β,14α-Dihydroxy-(1,7–1,14)-epoxy-7,15-dioxo-6,20-hemiketal-6,7-seco-16-kaurene-6β-yl 4-(4-(6-fluorobenzo[d]isoxazol-3-yl)piperidin-1-yl)-4-oxobutanoate]
[1]; [4]
  late apoptosis: 41.8%
  percentage of total apoptosis: 58.00%
[1]; A549, lowest concentration (2 µM per Figure 4b)
  percentage of total apoptosis: 5.38%
[2]
  apoptosis morphology (AO/EB): generated large amounts of apoptotic cells
[3]
  Akt protein phosphorylation expression: showed an effect on Akt protein phosphorylation expression
[3]; dose-dependent, vs blank control
  expression levels of p-PI3K and p-mTOR: effectively reduce
